The source of these data is patent US20230086703A1, “N-(4-(5-chloropyridin-3-yl)phenyl)-2-(2-(cyclopropanesulfonamido)pyrimidin-4-yl) butanamide derivatives and related compounds as human CTPS1 inhibitors for the treatment of proliferative diseases” (Step Pharma S.A.S., priority 2019, published 2023).

The target of the assay is T1, human CTPS1 (Homo sapiens, UniProt P17812).
T1 construct: FLAG (with GG linker); His8 (with GG linker); purchased Proteros biostructures GmbH
T1 sequence (P17812 1-591): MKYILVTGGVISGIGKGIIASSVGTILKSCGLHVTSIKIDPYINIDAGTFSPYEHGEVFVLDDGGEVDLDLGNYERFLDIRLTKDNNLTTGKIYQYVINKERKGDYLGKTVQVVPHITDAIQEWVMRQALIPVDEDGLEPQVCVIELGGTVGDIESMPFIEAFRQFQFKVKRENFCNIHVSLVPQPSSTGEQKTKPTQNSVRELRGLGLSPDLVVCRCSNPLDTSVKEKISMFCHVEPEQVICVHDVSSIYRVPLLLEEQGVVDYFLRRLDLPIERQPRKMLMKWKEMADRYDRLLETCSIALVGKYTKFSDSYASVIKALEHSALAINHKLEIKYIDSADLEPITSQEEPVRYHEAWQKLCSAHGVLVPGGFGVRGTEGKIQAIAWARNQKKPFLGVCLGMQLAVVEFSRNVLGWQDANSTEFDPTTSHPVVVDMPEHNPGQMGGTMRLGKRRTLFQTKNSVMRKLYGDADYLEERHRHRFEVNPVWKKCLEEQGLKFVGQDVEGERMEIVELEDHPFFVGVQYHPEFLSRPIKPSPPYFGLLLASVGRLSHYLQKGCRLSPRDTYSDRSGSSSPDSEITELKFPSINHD
Kind of assay: Human CTPS1 enzyme inhibition, ADP-Glo Max assay. The class given is biochemical. A digest of the protocol:
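Read-out is ADP-Glo Max luminescence: residual ATP depleted (60 min), then produced ADP converted back to ATP for luciferase detection (60 min). Beforehand, protein and compound were mixed for 10 min at 25 °C in Tris buffer pH 8.0 with MgCl2, Tween-20 and 2 mM L-cysteine. Results expressed as percentage inhibition per concentration.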

Where [1] appears, read: ADP-Glo Max assay, Table 10, read-out: Human CTPS1 Enzyme Inhibition, IC50 grouped by potency range (CTPS1).

Read-outs that look alike come from different tables or passages of the source.

Turning to `CCOc1cncc(-c2ccc(NC(=O)C(CC)(CC)c3csc(NS(=O)(=O)C4CC4)n3)nc2)c1` [T145, 2-(2-(cyclopropanesulfonamido)thiazol-4-yl)-N-(5′-ethoxy-[3,3′-bipyridin]-6-yl)-2-ethylbutanamide], the IC50 under setting [1] was less than 100 nM.

For `CCC(CC)(C(=O)Nc1ccc(-c2cncc(C#N)c2)cc1)c1csc(NS(=O)(=O)C2CC2)n1` [T93, N-(4-(5-cyanopyridin-3-yl)phenyl)-2-(2-(cyclopropanesulfonamido)thiazol-4-yl)-2-ethylbutanamide], the IC50 under setting [1] is less than 100 nM.

For the molecule `O=C(Cc1csc(NS(=O)(=O)C2CC2)n1)Nc1ccc(-c2cncnc2)cc1` [T247, 2-(2-(cyclopropanesulfonamido)thiazol-4-yl)-N-(4-(pyrimidin-5-yl)phenyl)acetamide], the IC50 under setting [1] lay within 100 to 1000 nM.

With `CC(C)(C(=O)Nc1ccc(-c2cncc(OCC(F)(F)F)n2)cn1)c1csc(NS(=O)(=O)C2CC2)n1` [T109, 2-(2-(cyclopropanesulfonamido)thiazol-4-yl)-2-methyl-N-(5-(6-(2,2,2-trifluoroethoxy)pyrazin-2-yl)pyridin-2-yl)propanamide], the IC50 under setting [1] was less than 100 nM.

For `CC(C)S(=O)(=O)Nc1nc(C(C)(C)C(=O)Nc2ccc(-c3cccnc3)cc2)cs1` [T297, 2-methyl-2-(2-((1-methylethyl)sulfonamido)thiazol-4-yl)-N-(4-(pyridin-3-yl)phenyl)propanamide], the IC50 under setting [1] was 1000 to 10000 nM.

`CCOc1cncc(-c2ccc(NC(=O)C(C)(C)c3csc(NS(=O)(=O)CC(C)C)n3)cc2)n1` [T312, N-(4-(6-ethoxypyrazin-2-yl)phenyl)-2-methyl-2-(2-((2-methylpropyl)sulfonamido)thiazol-4-yl)propanamide]: the IC50 under setting [1] lay within 100 to 1000 nM.

As for `CC(=O)Nc1cncc(-c2ccc(NC(=O)C(C)(C)c3csc(NS(=O)(=O)C4CC4)n3)cc2)n1` [T281, N-(4-(6-acetamidopyrazin-2-yl)phenyl)-2-(2-(cyclopropanesulfonamido)thiazol-4-yl)-2-methylpropanamide], the IC50 under setting [1] is 100 to 1000 nM.

For the molecule `CCOc1cnc(-c2ccc(NC(CC)c3ccnc(NS(=O)(=O)C4CC4)n3)cc2)cn1` (stereo not drawn) [P261], the IC50 (Table 12, ADP-Glo Max assay, read-out: CTPS1 (Human CTPS1 Enzyme Inhibition data grouped by potency range)) is 100 to 1000 nM.

For the molecule `CC(C)(C(=O)Nc1ccc(-c2cccnc2C(F)(F)F)cc1)c1csc(NS(=O)(=O)C2CC2)n1` [T248, 2-(2-(cyclopropanesulfonamido)thiazol-4-yl)-2-methyl-N-(4-(2-(trifluoromethyl)pyridin-3-yl)phenyl)propanamide], the IC50 under setting [1] lay in the range of 1000 to 10000 nM.

As to `CCOc1cncc(-c2ccc(NC(=O)C(C)(C)c3csc(NS(C)(=O)=O)n3)c(C(F)(F)F)c2)n1` [T429, N-(4-(6-ethoxypyrazin-2-yl)-2-(trifluoromethyl)phenyl)-2-methyl-2-(2-(methylsulfonamido)thiazol-4-yl)propanamide], the IC50 under setting [1] was less than 100 nM.

Take `Cc1cc(-c2cncc(F)c2)ccc1NC(=O)C(C)(C)c1csc(NS(=O)(=O)C2CC2)n1` [T287, 2-(2-(cyclopropanesulfonamido)thiazol-4-yl)-N-(4-(5-fluoropyridin-3-yl)-2-methylphenyl)-2-methylpropanamide]: under setting [1], the IC50 is less than 100 nM.

With `CCOc1cncc(-c2ccc(NC(=O)C(F)(F)c3csc(NS(=O)(=O)C4CC4)n3)nc2)n1` [T422, 2-(2-(cyclopropanesulfonamido)thiazol-4-yl)-N-(5-(6-ethoxypyrazin-2-yl)pyridin-2-yl)-2,2-difluoroacetamide], under setting [1], the IC50 lay within 100 to 1000 nM.

As for `Cc1cc(NC(=O)C(C)(C)c2csc(NS(=O)(=O)C3CC3)n2)ccc1-c1cncc(C#N)c1` [T322, N-(4-(5-cyanopyridin-3-yl)-3-methylphenyl)-2-(2-(cyclopropanesulfonamido)thiazol-4-yl)-2-methylpropanamide], the IC50 under setting [1] fell in the range of 100 to 1000 nM.

Consider `COc1cncc(-c2ccc(NC(=O)Cc3csc(NS(=O)(=O)C4CCC4)n3)cc2)n1` [T61, 2-(2-(cyclobutanesulfonamido)thiazol-4-yl)-N-(4-(6-methoxypyrazin-2-yl)phenyl)acetamide], for which, under setting [1], the IC50 is less than 100 nM.

With `CN(C)c1cncc(-c2ccc(NC(=O)C(C)(C)c3csc(NS(=O)(=O)C4CC4)n3)cc2)c1` [T257, 2-(2-(cyclopropanesulfonamido)thiazol-4-yl)-N-(4-(5-(dimethylamino)pyridin-3-yl)phenyl)-2-methylpropanamide], the IC50 under setting [1] lay in the range of 100 to 1000 nM.

For `CC(C)Oc1cncc(-c2ccc(NC(=O)C(C)(C)c3csc(NS(=O)(=O)C4CC4)n3)cc2)n1` [T272, 2-(2-(cyclopropanesulfonamido)thiazol-4-yl)-N-(4-(6-isopropoxypyrazin-2-yl)phenyl)-2-methylpropanamide], the IC50 under setting [1] was less than 100 nM.

For the molecule `COc1cc(OC)cc(-c2ccc(NC(=O)C(C)(C)c3csc(NS(=O)(=O)C4CC4)n3)nc2)c1` [T234, 2-(2-(cyclopropanesulfonamido)thiazol-4-yl)-N-(5-(3,5-dimethoxyphenyl)pyridin-2-yl)-2-methylpropanamide], under setting [1], the IC50 is 1000 to 10000 nM.

Consider `COc1ccc(-c2ccc(NC(=O)C(C)(C)c3csc(NS(=O)(=O)C4CC4)n3)cc2)cn1` [T46, 2-(2-(cyclopropanesulfonamido)thiazol-4-yl)-N-(4-(6-methoxypyridin-3-yl)phenyl)-2-methylpropanamide], for which, under setting [1], the IC50 is 1000 to 10000 nM.

With `COc1cc(-c2cccnc2)ccc1NC(=O)Cc1csc(NS(=O)(=O)C2CC2)n1` [T215, 2-(2-(cyclopropanesulfonamido)thiazol-4-yl)-N-(2-methoxy-4-(pyridin-3-yl)phenyl)acetamide], the IC50 under setting [1] was less than 100 nM.

With `CCOc1cncc(-c2ccc(NC(=O)C(C)(C)c3csc(NS(=O)(=O)C4CCC4)n3)cc2)n1` [T307, 2-(2-(cyclobutanesulfonamido)thiazol-4-yl)-N-(4-(6-ethoxypyrazin-2-yl)phenyl)-2-methylpropanamide], under setting [1], the IC50 was less than 100 nM.

As for `CCOc1cncc(-c2ccc(NC(=O)C(C)(C)c3csc(NS(=O)(=O)C4(C)CC4)n3)cc2)n1` [T301, N-(4-(6-ethoxypyrazin-2-yl)phenyl)-2-methyl-2-(2-((1-methylcyclopropane)-1-sulfonamido)thiazol-4-yl)propanamide], the IC50 under setting [1] was less than 100 nM.

Regarding `Cc1ccncc1-c1ccc(NC(=O)C(C)(C)c2csc(NS(=O)(=O)C3CC3)n2)cc1` [T254, 2-(2-(cyclopropanesulfonamido)thiazol-4-yl)-2-methyl-N-(4-(4-methylpyridin-3-yl)phenyl)propanamide], the IC50 under setting [1] fell in the range of 100 to 1000 nM.

As for `Cc1nccnc1-c1ccc(NC(=O)C(C)(C)c2csc(NS(=O)(=O)C3CC3)n2)cc1` [T280, 2-(2-(cyclopropanesulfonamido)thiazol-4-yl)-2-methyl-N-(4-(3-methylpyrazin-2-yl)phenyl)propanamide], the IC50 under setting [1] lay within 1000 to 10000 nM.

With `CCOc1cncc(-c2ccc(NC(=O)C(C)(C)c3csc(NS(=O)(=O)CC(C)C)n3)nc2)n1` [T295, N-(5-(6-ethoxypyrazin-2-yl)pyridin-2-yl)-2-methyl-2-(2-((2-methylpropyl)sulfonamido)thiazol-4-yl)propanamide], the IC50 under setting [1] was 100 to 1000 nM.

For the molecule `CC(C)(C(=O)Nc1ccc(-c2cncc(C(F)(F)F)c2)cc1F)c1csc(NS(C)(=O)=O)n1` [T426, N-(2-fluoro-4-(5-(trifluoromethyl)pyridin-3-yl)phenyl)-2-methyl-2-(2-(methylsulfonamido)thiazol-4-yl)propanamide], the IC50 under setting [1] is 100 to 1000 nM.

On to `CC(C)(C(=O)Nc1ccc(-c2cncc(OC(F)F)c2)cc1)c1csc(NS(=O)(=O)C2CC2)n1` [T118, 2-(2-(cyclopropanesulfonamido)thiazol-4-yl)-N-(4-(5-(difluoromethoxy)pyridin-3-yl)phenyl)-2-methylpropanamide], for which, under setting [1], the IC50 was less than 100 nM.

With `CCOc1cncc(-c2ccc(NC(=O)C(C)(C)c3csc(NS(=O)(=O)C4CC4)n3)c(F)c2)c1` [T125, 2-(2-(cyclopropanesulfonamido)thiazol-4-yl)-N-(4-(5-ethoxypyridin-3-yl)-2-fluorophenyl)-2-methylpropanamide], the IC50 under setting [1] was less than 100 nM.

`Cc1cc(-c2cncc(C#N)c2)ccc1NC(=O)C(C)(C)c1csc(NS(=O)(=O)C2CC2)n1` [T286, N-(4-(5-cyanopyridin-3-yl)-2-methylphenyl)-2-(2-(cyclopropanesulfonamido)thiazol-4-yl)-2-methylpropanamide]: the IC50 under setting [1] was less than 100 nM.

For the molecule `CCC(CC)(C(=O)Nc1ccc(-c2cccnc2)cc1)c1csc(NS(=O)(=O)C2CC2)n1` [T92, 2-(2-(cyclopropanesulfonamido)thiazol-4-yl)-2-ethyl-N-(4-(pyridin-3-yl)phenyl)butanamide], the IC50 under setting [1] was less than 100 nM.

As to `CCOc1cncc(-c2ccc(NC(=O)C(C)(C)c3csc(NS(=O)(=O)C(C)C)n3)cc2)n1` [T298, N-(4-(6-ethoxypyrazin-2-yl)phenyl)-2-methyl-2-(2-((1-methylethyl)sulfonamido)thiazol-4-yl)propanamide], the IC50 under setting [1] is less than 100 nM.
